By IC50 is commonly meant the midpoint of a concentration-inhibition curve.

Sequence of Nociceptin receptor (P41146 whole entry): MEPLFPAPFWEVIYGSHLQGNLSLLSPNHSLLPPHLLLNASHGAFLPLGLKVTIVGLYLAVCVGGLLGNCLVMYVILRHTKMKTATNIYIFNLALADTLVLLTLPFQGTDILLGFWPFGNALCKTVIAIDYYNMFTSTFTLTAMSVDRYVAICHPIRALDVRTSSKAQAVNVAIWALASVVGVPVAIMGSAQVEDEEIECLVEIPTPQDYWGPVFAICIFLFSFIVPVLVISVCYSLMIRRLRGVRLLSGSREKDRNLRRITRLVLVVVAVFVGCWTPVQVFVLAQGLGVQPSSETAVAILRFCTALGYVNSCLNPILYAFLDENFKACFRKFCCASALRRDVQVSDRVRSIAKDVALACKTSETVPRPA

This assay concerns the target Nociceptin receptor (Homo sapiens, UniProt P41146). Nature of the assay: Cell-Based NOP Assay: Formula (I) compounds were tested for antagonism of the nociceptin receptor (NOP) in a cell-based cAMP assay, using the LANCE cAMP Detection Kit, Perkin Elmer (Waltham, Mass.). This assay (LANCE cAMP) is a homogeneous, time-resolved fluorescence resonance energy transfer (TR-FRET) immunoassay designed to measure cAMP produced upon modulation of adenylyl cyclase activity by G protein-coupled receptors (GPCRs).ProtocolCells expressing human opioid NOP (ValiScreen cell line, cat #ES-230-C Perkin Elmer (Waltham, Mass.) were dispensed in simulation buffer (5 mM Hepes, 0.1% BSA, 0.5 mM IBMX in Hanks Buffered Saline Solution) at 2.5 μL cells per well (400 cells/well) into a 1536 white TC-treated assay plate. Compound was then added and plates were incubated for 15 minutes at room temperature. To each well was added 2.5 μL of a solution containing forskolin (3 μM final) and nociceptin peptide (390 pM final) diluted in stimulation buffer, and the plates were incubated for 30 minutes at room temperature. To each well was dispensed 5 μL of LANCE Ultra detection (1:300 dilution of anti-cAMP ULight with a 1:100 dilution of Eu-cAMP tracer diluted in cAMP Detection Buffer) reagent, and the plates were incubated for 1 hr at room temperature. The plate was then read on the ViewLux microplate reader (Perkin Elmer, Waltham, Mass.) using the LANCE 1536 protocol with 60 second exposure times and 50 μs delay. This protocol has an excitation wavelength of 340 nm (DUG11 filter) and emission wavelengths of 615 nm (Eu-Donor) and 665 nm (Alexa 647 cAMP antibody acceptor).Data AnalysisData was analyzed, normalized, and visualized using ACAS (John McNeil & Co.). Efficacy was calculated using activity of the vehicle (DMSO) as 0% efficacy and the activity of the corresponding reference positive control (SCH 221510, Tocris Bioscience (Pittsburgh, Pa.), Catalog number 3240) as 100% efficacy. Activity was calculated as the ratio of donor and acceptor emissions. All curve fits and IC50 determinations were performed using a non-linear regression model. The IC50 value was measured as the concentration at which half-maximal response was calculated.
As for `O=C1C[C@@H](NCC[C@H]2CC[C@@H](c3ccc(F)cc3Cl)CC2)CCN1`, the IC50 is 1 to 10 nM.

Take `CNC(=O)C1(NCC[C@H]2CC[C@@H](c3ncc(F)cc3Cl)CC2)CCOCC1`: the 50% inhibitory concentration (IC50) was 1 to 10 nM. The result for `Fc1cnc(C2CCC(CCNC3CCCCC3)CC2)c(Cl)c1` (stereo not given) reads 1 to 10 nM.

As for `NC(=O)C1(NCC[C@H]2CC[C@@H](c3ccc(F)cc3Cl)CC2)CCOCC1`, the IC50 was 1 to 10 nM. With `CC1(NCCC2CCC(c3ccccc3Cl)CC2)CCCC1` (stereo not given), the IC50 was 100 to 1000 nM. In the case of `COCC1(NCCC2CCC(c3ccc(F)cc3F)CC2)CCOCC1` (stereo not given) it was 10 to 100 nM; in that of `Cc1cc(F)cc(F)c1[C@H]1CC[C@H](CCNC2(C(N)=O)CCOCC2)CC1`, 1 to 10 nM. The result for `NC(=O)C1(NCC[C@H]2CC[C@@H](c3ccc(F)cc3Cl)CC2)CCCC1` reads 10 to 100 nM; that for `Cc1cccnc1C1CCC(CCNC2CCOCC2)CC1` (stereo not given), 10 to 100 nM. The result for `Cc1cccnc1[C@H]1CC[C@@H](CCNC2CCOCC2)CC1` reads 10 to 100 nM. With `Cc1cc(F)ccc1[C@H]1CC[C@H](CCNC2CCOCC2)CC1`, the IC50 was 1 to 10 nM. In the case of `Oc1cccc([C@H]2CC[C@@H](CCNC3CCOCC3)CC2)c1` it was 100 to 1000 nM. In the case of `NC(=O)C1(NCC[C@H]2CC[C@@H](c3ccc(F)cc3Cl)CC2)CCCOC1` (stereo not given in full) it was 100 to 1000 nM; in that of `Fc1ccc([C@H]2CC[C@@H](CCNC3CCC(F)(F)C3)CC2)c(Cl)c1` (stereo not given in full), under 1 nM. The result for `CC1(NCCC2CCC(c3ncccc3Cl)CC2)CCCC1` (stereo not given) reads 100 to 1000 nM; that for `Cc1c(C#N)cccc1[C@H]1CC[C@H](CCNC2CCOCC2)CC1`, 100 to 1000 nM. Turning to `NC(=O)C1(NCC[C@H]2CC[C@H](c3ccc(F)cc3Cl)CC2)CCOCC1`, the IC50 was 10 to 100 nM.

With `CCNC(=O)C1(NCC[C@H]2CC[C@@H](c3ccc(F)cc3C(F)(F)F)CC2)CCOCC1`, the concentration for half-maximal inhibition (IC50) was 1 to 10 nM. For the compound `Fc1cccc(Cl)c1[C@H]1CC[C@H](CCNC2CCOCC2)CC1`, the IC50 is 1 to 10 nM.

Regarding `Fc1cnc([C@H]2CC[C@@H](CCNC3CCOCC3)CC2)c(Cl)c1`, the IC50 was under 1 nM. In the case of `CCNC(=O)C1(NCC[C@H]2CC[C@@H](c3ncc(F)cc3Cl)CC2)CCOCC1`, the IC50 is 1 to 10 nM.

Consider `NC(=O)C1(NCC[C@H]2CC[C@@H](c3ncccc3Cl)CC2)CCOCC1`, for which the IC50 was 100 to 1000 nM. Consider `Cc1cccnc1C1CCC(CCNC2(C)CCOCC2)CC1` (stereo not given), for which the IC50 is 100 to 1000 nM. Regarding `COCC1(NCC[C@H]2CC[C@@H](c3ccc(F)cc3Cl)CC2)CCOCC1`, the IC50 is 1 to 10 nM. The result for `CC1(NCC[C@H]2CC[C@@H](c3ncc(F)cc3Cl)CC2)CCNC(=O)C1` (stereo not given in full) reads 100 to 1000 nM.

The record behind these values is ChEMBL document CHEMBL5729163, “Substituted cyclohexyl compounds as NOP inhibiiors” (2022).
